Tests used:
[1] = test system: HeLa; assay: Hoechst 33342 nuclear staining (Table 3); type: cell-based, human; parameters: key: 0 relating to no activity; 1 relating to weak activity comprising less than 50% of the cells; score 2 relating to strong activity comprising more than 50% of the cells
Method in brief: (§1)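 Adherent cells (3-5×10^3, pre-spread 24 h) or suspension cells (8-10×10^3) treated with compounds at 10, 3, 1 and 0.3 µM for 24 or 48 h, then Hoechst 33342 stained for 30 min. Apoptotic nuclear morphology scored by fluorescence microscopy: 0 none, 1 weak (<50% cells), 2 strong (>50% cells).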

[2] = test system: Jurkat; assay: Hoechst 33342 nuclear staining (Table 3); type: cell-based, human; parameters: key: 0 relating to no activity; 1 relating to weak activity comprising less than 50% of the cells; score 2 relating to strong activity comprising more than 50% of the cells
Method in brief: as §1

[3] = test system: K562; assay: Hoechst 33342 nuclear staining (Table 3); type: cell-based, human; parameters: key: 0 relating to no activity; 1 relating to weak activity comprising less than 50% of the cells; score 2 relating to strong activity comprising more than 50% of the cells
Method in brief: as §1

[4] = test system: KB; assay: Hoechst 33342 nuclear staining (Table 3); type: cell-based, human; parameters: key: 0 relating to no activity; 1 relating to weak activity comprising less than 50% of the cells; score 2 relating to strong activity comprising more than 50% of the cells
Method in brief: as §1

[5] = test system: A20; assay: Hoechst 33342 nuclear staining (Table 3); type: cell-based, mouse; parameters: key: 0 relating to no activity; 1 relating to weak activity comprising less than 50% of the cells; score 2 relating to strong activity comprising more than 50% of the cells
Method: This assay is performed in 96 well tissue culture plates. Appropriate number of cells (adherent cells: 3 - 5*10^3, suspension cells: 8 - 10*10^3) are being seeded out in 80 µl complete medium. Adherent cells are incubated for 24 h for proper spreading out before addition of test compounds while suspension cells are immediately treated with test compounds after seeding out. The test compounds are added in 20 µl complete medium containing max 5% DMSO. The final compound concentrations in the assays are 10 µM, 3 µM,1 µM and 0.3 µM, respectively. After 24 h or 48 h incubation at culture conditions, 10 µl medium containing Hoechst 33342 dye (Sigma B-2261) at 2-5 µg/ml are added to each well. The assay plates are then further incubated for 30 minutes and subsequently analyzed with a standard inverted fluorescence microscope. The readout allows the determination of the fraction of apoptotic nuclei as well as other morphological criteria specific for apoptosis as a function of the treatment. The following scores are used: 0 relating to no activity, 1 relating to weak activity comprising less than 50% of the cells and score 2 relating to strong activity comprising more than 50% of the cells.

[6] = test system: HeLa; assay: MTS proliferation assay; type: cell-based; settings: Homo sapiens, 72 h incubation
Method: (§2) The assay is performed in 96 well tissue culture plates. The cells (range : 1.5*10^3-10^4) are seeded out in 80 µl complete medium 24 h prior to compound treatment. The test compounds are added in 20 µl complete medium containing max 5% DMSO. The final compound concentrations in the assays are 10 µM, 3 µM,1 µM and 0.3 µM, respectively. The assay plates are incubated for 72 h at culture conditions. The MTS reagent is prepared according to the manufacturer's protocol (Promega G1111 ). 20 µl MTS reagent are added to each well, the assay plates are quickly spun and incubated for another 3 h at culture conditions. Subsequently, the plates are shortly shaked and absorption measured with a microplate-reader at 492 nm.

[7] = test system: Jurkat; assay: MTS proliferation assay; type: cell-based; settings: Homo sapiens, 72 h incubation
Method: as §2

[8] = test system: K562; assay: MTS proliferation assay; type: cell-based; settings: Homo sapiens, K562, 72 h incubation
Method: as §2

[9] = test system: HeLa; assay: BrdU incorporation (proliferation); type: cell-based, human; parameters: key: 0 for no activity; 1 for a moderate inhibition; 2 for strong inhibition of proliferation; settings: 48 h
Method: (§3) Adherent cells are seeded out at 2 - 4*10^4 cells/well/ml in 24 well tissue culture plates 24 h prior to treatment. Suspension cells are seeded out at 2*10^5 cells/ml/well in 24 well plates. Compounds are added leading to final concentrations of 3 µM and 10 µM, respectively. Subsequently, BrdU (Molecular Probes #B-23151) at 10 µM final concentration is added and the plates are incubated for 48 h. After the incubation cells are processed according to standard procedures. The detection of the incorporated BrdU is done with the anti-bromodeoxyuridine Mab PRB-1, Alexa Fluor 660 conjugate (Molecular Probes #A-21306). The analysis is performed on a FACSCalibur™ by monitoring the fluorescence activity on FL3. The readout reflects DNA synthesis which is a hallmark for proliferation. The scores are defined the following: 0 for no activity, 1 for a moderate inhibition and 2 for strong inhibition of proliferation. Table 7 indicates inhibitory activities of several tested compounds on proliferation.

[10] = test system: Jurkat; assay: BrdU incorporation (proliferation); type: cell-based, human; parameters: key: 0 for no activity; 1 for a moderate inhibition; 2 for strong inhibition of proliferation; settings: 48 h
Method: as §3

CC1(C)Cc2ccccc2-c2c(Br)c3nc4ccccc4nc3n21 [No. 2, 13-Bromo-6,6-dimethyl-5,6-dihydro-6a,7,12-triaza-dibenzo[a,h]fluorene]
Hoechst 33342 nuclear staining ([1]; 24h, conc 0.3 (µM)): 0 | Hoechst 33342 nuclear staining ([1]; 24h, conc 1 (µM)): 0 | Hoechst 33342 nuclear staining ([1]; 24h, conc 3 (µM)): 0 | Hoechst 33342 nuclear staining ([1]; 24h, conc 10 (µM)): 0 | Hoechst 33342 nuclear staining ([1]; 48h, conc 0.3 (µM)): 0 | Hoechst 33342 nuclear staining ([1]; 48h, conc 1 (µM)): 1 (1 relating to weak activity comprising less than 50% of the cells) | Hoechst 33342 nuclear staining ([1]; 48h, conc 3 (µM)): 2 (score 2 relating to strong activity comprising more than 50% of the cells) | Hoechst 33342 nuclear staining ([1]; 48h, conc 10 (µM)): 2 (score 2 relating to strong activity comprising more than 50% of the cells) | Hoechst 33342 nuclear staining ([2]; 24h, conc 0.3 (µM)): 1 (1 relating to weak activity comprising less than 50% of the cells) | Hoechst 33342 nuclear staining ([2]; 24h, conc 1 (µM)): 1 (1 relating to weak activity comprising less than 50% of the cells) | Hoechst 33342 nuclear staining ([2]; 24h, conc 3 (µM)): 2 (score 2 relating to strong activity comprising more than 50% of the cells) | Hoechst 33342 nuclear staining ([2]; 24h, conc 10 (µM)): 2 (score 2 relating to strong activity comprising more than 50% of the cells) | Hoechst 33342 nuclear staining ([2]; 48h, conc 0.3 (µM)): 2 (score 2 relating to strong activity comprising more than 50% of the cells) | Hoechst 33342 nuclear staining ([2]; 48h, conc 1 (µM)): 2 (score 2 relating to strong activity comprising more than 50% of the cells) | Hoechst 33342 nuclear staining ([2]; 48h, conc 3 (µM)): 2 (score 2 relating to strong activity comprising more than 50% of the cells) | Hoechst 33342 nuclear staining ([2]; 48h, conc 10 (µM)): 2 (score 2 relating to strong activity comprising more than 50% of the cells) | Hoechst 33342 nuclear staining ([3]; K562, 24h, conc 0.3 (µM)): 0 | Hoechst 33342 nuclear staining ([3]; K562, 24h, conc 1 (µM)): 0 | Hoechst 33342 nuclear staining ([3]; K562, 24h, conc 3 (µM)): 1 (1 relating to weak activity comprising less than 50% of the cells) | Hoechst 33342 nuclear staining ([3]; K562, 48h, conc 0.3 (µM)): 0 | Hoechst 33342 nuclear staining ([3]; K562, 48h, conc 1 (µM)): 0 | Hoechst 33342 nuclear staining ([3]; K562, 48h, conc 3 (µM)): 2 (score 2 relating to strong activity comprising more than 50% of the cells) | Hoechst 33342 nuclear staining ([3]; K562, 48h, conc 10 (µM)): 2 (score 2 relating to strong activity comprising more than 50% of the cells) | Hoechst 33342 nuclear staining ([4]; 24h, conc 0.3 (µM)): 0 | Hoechst 33342 nuclear staining ([4]; 24h, conc 1 (µM)): 0 | Hoechst 33342 nuclear staining ([4]; 24h, conc 3 (µM)): 0 | Hoechst 33342 nuclear staining ([4]; 24h, conc 10 (µM)): 0 | Hoechst 33342 nuclear staining ([4]; 48h, conc 0.3 (µM)): 0 | Hoechst 33342 nuclear staining ([4]; 48h, conc 1 (µM)): 0 | Hoechst 33342 nuclear staining ([4]; 48h, conc 3 (µM)): 0 | Hoechst 33342 nuclear staining ([4]; 48h, conc 10 (µM)): 0

COc1cc2c(cc1OC)-c1c(Br)c3nc4ccccc4nc3n1C(C)C2 (centres unmarked) [compound 10]
Hoechst 33342 nuclear staining ([5]; A20, 24h, conc 0.3 (µM)): 0 | Hoechst 33342 nuclear staining ([5]; A20, 24h, conc 1 (µM)): 0 | Hoechst 33342 nuclear staining ([5]; A20, 24h, conc 3 (µM)): 0 | Hoechst 33342 nuclear staining ([5]; A20, 24h, conc 10 (µM)): 2 (score 2 relating to strong activity comprising more than 50% of the cells) | Hoechst 33342 nuclear staining ([5]; A20, 48h, conc 0.3 (µM)): 0 | Hoechst 33342 nuclear staining ([5]; A20, 48h, conc 1 (µM)): 0 | Hoechst 33342 nuclear staining ([5]; A20, 48h, conc 3 (µM)): 2 (score 2 relating to strong activity comprising more than 50% of the cells) | Hoechst 33342 nuclear staining ([1]; 24h, conc 0.3 (µM)): 0 | Hoechst 33342 nuclear staining ([1]; 24h, conc 1 (µM)): 0 | Hoechst 33342 nuclear staining ([1]; 24h, conc 3 (µM)): 0 | Hoechst 33342 nuclear staining ([1]; 24h, conc 10 (µM)): 2 (score 2 relating to strong activity comprising more than 50% of the cells) | Hoechst 33342 nuclear staining ([1]; 48h, conc 0.3 (µM)): 0 | Hoechst 33342 nuclear staining ([1]; 48h, conc 1 (µM)): 0 | Hoechst 33342 nuclear staining ([1]; 48h, conc 3 (µM)): 2 (score 2 relating to strong activity comprising more than 50% of the cells) | Hoechst 33342 nuclear staining ([1]; 48h, conc 10 (µM)): 2 (score 2 relating to strong activity comprising more than 50% of the cells) | Hoechst 33342 nuclear staining ([2]; 24h, conc 0.3 (µM)): 1 (1 relating to weak activity comprising less than 50% of the cells) | Hoechst 33342 nuclear staining ([2]; 24h, conc 1 (µM)): 2 (score 2 relating to strong activity comprising more than 50% of the cells) | Hoechst 33342 nuclear staining ([2]; 24h, conc 3 (µM)): 2 (score 2 relating to strong activity comprising more than 50% of the cells) | Hoechst 33342 nuclear staining ([2]; 24h, conc 10 (µM)): 2 (score 2 relating to strong activity comprising more than 50% of the cells) | Hoechst 33342 nuclear staining ([2]; 48h, conc 0.3 (µM)): 1 (1 relating to weak activity comprising less than 50% of the cells) | Hoechst 33342 nuclear staining ([2]; 48h, conc 1 (µM)): 2 (score 2 relating to strong activity comprising more than 50% of the cells) | Hoechst 33342 nuclear staining ([2]; 48h, conc 3 (µM)): 2 (score 2 relating to strong activity comprising more than 50% of the cells) | Hoechst 33342 nuclear staining ([2]; 48h, conc 10 (µM)): 2 (score 2 relating to strong activity comprising more than 50% of the cells) | Hoechst 33342 nuclear staining ([3]; K562, 24h, conc 0.3 (µM)): 0 | Hoechst 33342 nuclear staining ([3]; K562, 24h, conc 1 (µM)): 0 | Hoechst 33342 nuclear staining ([3]; K562, 24h, conc 3 (µM)): 2 (score 2 relating to strong activity comprising more than 50% of the cells) | Hoechst 33342 nuclear staining ([3]; K562, 24h, conc 10 (µM)): 2 (score 2 relating to strong activity comprising more than 50% of the cells) | Hoechst 33342 nuclear staining ([3]; K562, 48h, conc 0.3 (µM)): 0 | Hoechst 33342 nuclear staining ([3]; K562, 48h, conc 1 (µM)): 2 (score 2 relating to strong activity comprising more than 50% of the cells) | Hoechst 33342 nuclear staining ([3]; K562, 48h, conc 3 (µM)): 2 (score 2 relating to strong activity comprising more than 50% of the cells) | Hoechst 33342 nuclear staining ([3]; K562, 48h, conc 10 (µM)): 2 (score 2 relating to strong activity comprising more than 50% of the cells) | Hoechst 33342 nuclear staining ([4]; 24h, conc 0.3 (µM)): 0 | Hoechst 33342 nuclear staining ([4]; 24h, conc 1 (µM)): 0 | Hoechst 33342 nuclear staining ([4]; 24h, conc 3 (µM)): 2 (score 2 relating to strong activity comprising more than 50% of the cells) | Hoechst 33342 nuclear staining ([4]; 24h, conc 10 (µM)): 2 (score 2 relating to strong activity comprising more than 50% of the cells) | Hoechst 33342 nuclear staining ([4]; 48h, conc 0.3 (µM)): 0 | Hoechst 33342 nuclear staining ([4]; 48h, conc 1 (µM)): 2 (score 2 relating to strong activity comprising more than 50% of the cells) | Hoechst 33342 nuclear staining ([4]; 48h, conc 3 (µM)): 2 (score 2 relating to strong activity comprising more than 50% of the cells) | Hoechst 33342 nuclear staining ([4]; 48h, conc 10 (µM)): 2 (score 2 relating to strong activity comprising more than 50% of the cells) | IC50 [6]: 1 to 10 µM | IC50 [7]: > 10 µM | IC50 [8]: > 10 µM | BrdU incorporation (inhibition of proliferation) ([9]; 3uM): 0 | BrdU incorporation (inhibition of proliferation) ([9]; 10uM): 0 | BrdU incorporation (inhibition of proliferation) ([10]; 3uM): 2 | BrdU incorporation (inhibition of proliferation) ([10]; 10uM): 1
